Results published in patent publication US9388172B2, “Substituted carbamate compounds” (Hoffmann-La Roche Inc., priority 2012, dated 2016).
Where a name gives a salt, the structure may show the parent alone.

molecular target: T1, hTRPA1 (Homo sapiens, UniProt O75762); assay: ChanTest hTRPA1-CHO calcium flux dose response assay (FLIPR, cinnamaldehyde agonist); assay type: cell-based; details: CHO-K1 Tet-On hTRPA1 cells, 100 uM cinnamaldehyde agonist, 30 min compound preincubation
T1 construct: host or cells: CHO-K1 Tet-On HOMSA TRPA1 Clone 20 (Chinese Hamster Ovary cells, inducible expression)
T1 sequence (O75762 whole entry): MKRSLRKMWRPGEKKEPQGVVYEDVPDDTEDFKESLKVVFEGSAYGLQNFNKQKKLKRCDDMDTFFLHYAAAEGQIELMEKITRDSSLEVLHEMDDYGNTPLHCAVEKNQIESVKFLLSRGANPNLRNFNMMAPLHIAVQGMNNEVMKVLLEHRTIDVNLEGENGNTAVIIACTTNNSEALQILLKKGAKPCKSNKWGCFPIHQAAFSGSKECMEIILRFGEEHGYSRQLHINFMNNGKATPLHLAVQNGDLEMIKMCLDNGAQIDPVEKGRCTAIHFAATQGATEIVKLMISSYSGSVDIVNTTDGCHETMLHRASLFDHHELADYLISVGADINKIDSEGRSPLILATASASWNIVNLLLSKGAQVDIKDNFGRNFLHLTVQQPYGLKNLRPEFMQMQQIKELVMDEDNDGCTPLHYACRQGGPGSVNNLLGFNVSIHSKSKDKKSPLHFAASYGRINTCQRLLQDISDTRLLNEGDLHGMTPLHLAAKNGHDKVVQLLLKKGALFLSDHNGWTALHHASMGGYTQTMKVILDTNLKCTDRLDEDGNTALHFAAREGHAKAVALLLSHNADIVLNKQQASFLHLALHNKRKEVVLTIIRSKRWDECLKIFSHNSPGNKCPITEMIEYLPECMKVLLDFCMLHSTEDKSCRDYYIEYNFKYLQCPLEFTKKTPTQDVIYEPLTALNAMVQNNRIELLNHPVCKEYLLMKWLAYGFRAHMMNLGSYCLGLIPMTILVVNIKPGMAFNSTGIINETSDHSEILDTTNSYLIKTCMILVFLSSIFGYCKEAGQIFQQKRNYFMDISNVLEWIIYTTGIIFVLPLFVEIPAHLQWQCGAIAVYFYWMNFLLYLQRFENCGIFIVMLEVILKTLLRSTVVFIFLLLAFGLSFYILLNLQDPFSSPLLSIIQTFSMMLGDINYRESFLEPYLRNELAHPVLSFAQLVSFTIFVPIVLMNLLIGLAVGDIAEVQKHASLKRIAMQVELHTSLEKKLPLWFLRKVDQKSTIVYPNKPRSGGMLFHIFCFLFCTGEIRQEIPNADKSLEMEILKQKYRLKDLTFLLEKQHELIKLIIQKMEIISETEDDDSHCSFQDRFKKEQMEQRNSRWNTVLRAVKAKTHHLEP
Experimental: IC50 Determination of Exemplified Compounds Dose Response Assay: ChanTest hTRPA1-CHO Stably Transfected Cell Line
CHO-K1 Tet-On HOMSA TRPA1 Clone 20
0.40 mg/ml Zeocin • The cell line doubling rate was ˜15 hours. […] Experiments were run at 24 hours post induction.
Plating Conditions CHOK1/TRPA1 Cells: • Harvested cells with 0.025% trypsin/EDTA. • Resuspended cells in growth media without selection antibiotics. • Measured cell density and diluted to 2.4×10^5 cells/ml in media containing 1 ug/ml Doxycycline Plate 25 ul/well into 384 well black/clear tissue culture-treated plates. • Incubated overnight at 37° C.
• Replacement Buffer: Hank's Balanced Salt Solution, 20 mM HEPES along with 0.005% BSA and 2× Probenecid • Dye Loading Buffer: Cal-3 NW Calcium dye was prepared by dissolving the contents of one vial with 500 ml Hank's Balanced Salt Solution containing 20 mM HEPES.
Control Compounds for CHOK1/TRPA1 Cells: • AP-18, stock 10 mM, prepare 3.5× compound dilution in a Compound Buffer (HBSS/20 mM HEPES/0.005% BSA)−final concentration 10 uM.
Preparation of Cinnamaldehyde (Agonist Addition): • FW=132.16 • Specific gravity=1.046 gm/cc • 1.32 gm/1.046 gm/cc=1.26 ml of stock • Add 1.74 ml DMSO=3.3 M stock • Working solution 4.5× (final 100 uM in Compound Buffer: HBSS/20 mM HEPES/0.005% BSA)
Compounds dilutions were prepared from 5 or 10 mM stock (100% DMSO): • Adjustments of volumes and concentrations were made at time of titration to reflect desired final assay concentrations. • Compounds were tested at either 20 μM three folds dilution 11 steps out or 30 μM two folds dilution 11 steps out. • 3 μl of diluted compound were transferred into Weidmann 384-well plate in duplicates side-by-side. • Compound plates were resuspended with 100 ul of HBSS/20 mM HEPES/0.005% BSA buffer (Compound Buffer): • column 1A-H: buffer/DMSO (bk) • column 2A-H: AP-18 (control antagonist for CHOK1 TRPA1 cells) • column 1I-P: ATP (control for CHOK1 teton cells) • column 2I-P: 2APB (control antagonist for CHOK1/TRPM8 cells).
Growth media was removed from the cell plates (20 ul) and 20 ul of the Replacement Buffer was added followed by addition of 25 ul of diluted dye. All three steps were performed using a Plate Washer BioTek 407. The plates were then incubated for 30′ at RT.
After incubation, both the cell and compound plates were brought to the FLIPR and 20 ul of the diluted compounds/antagonist/bk were transferred to the cell plates by the FLIPR. Plates were then incubated for 30′ at room temperature. After 30′ incubation, plates were returned to the FLIPR and 20 ul of 4.5× Cinnamaldehyde was added to the cell plates. During the compound addition as well as agonist addition, fluorescence readings were taken simultaneously from all 384 wells of the cell plate every 1.5 seconds. Five readings were taken to establish a stable baseline, then 20 ul of sample was rapidly (30 ul/sec) and simultaneously added to each well of the cell plate. The fluorescence was continuously monitored before, during and after sample/agonist addition for a total elapsed time of 100 seconds (compound addition) and 120 seconds (agonist addition). Responses (increase in peak fluorescence) in each well following agonist addition was determined. The initial fluorescence reading from each well, prior to ligand stimulation, was used a zero baseline value for the data from that well.

Row | SMILES | IC50 [nM]
1 | FC(F)(F)c1cccc(C2CCCN(CC(Cc3nc(-c4ccc(Cl)cc4)no3)C(F)(F)F)C2)c1 (mixture of isomers) [Example 14, 1-{2-[3-(4-Chlorophenyl)-[1,2,4]oxadiazol-5-ylmethyl]-3,3,3-trifluoro-propyl}-3-(3-trifluoromethyl-phenyl)-piperidine hydrochloride] | 2660
2 | FC(F)(F)c1cccc(C2CCCN(CC(Cc3nc4cc(Cl)ccc4[nH]3)C(F)(F)F)C2)c1 (stereo not drawn) [Example 1, 5-Chloro-2-{3,3,3-trifluoro-2-[3-(3-trifluoromethyl-phenyl)-piperidin-1-ylmethyl]-propyl}-1H-benzoimidazole hydrochloride] | 6720
3 | FC(F)(F)c1cccc(C2CCCN(CC(Cc3ncc(-c4ccc(Cl)cc4)[nH]3)C(F)(F)F)C2)c1 (stereo not drawn) [Example 2, 1-{2-[5-(4-Chlorophenyl)-1H-imidazol-2-ylmethyl]-3,3,3-trifluoro-propyl}-3-(3-trifluoromethyl-phenyl)piperidine hydrochloride] | 3700
4 | FC(F)(F)c1cccc(C2CCCN(CC(Cc3nnc(-c4ccc(Cl)cc4)o3)C(F)(F)F)C2)c1 (stereo not drawn) [Example 3, 1-{2-[5-(4-Chloro-phenyl)-[1,3,4]oxadiazol-2-ylmethyl]-3,3,3-trifluoro-propyl}-3-(3-trifluoromethyl-phenyl)-piperidine hydrochloride] | 702
5 | FC(F)(F)c1cccc(C2CCCN(CC(Cc3nc4ccc(Cl)cc4o3)C(F)(F)F)C2)c1 (stereo not drawn) [Example 4, 6-Chloro-2-{3,3,3-trifluoro-2-[3-(3-trifluoromethyl-phenyl)-piperidin-1-ylmethyl]-propyl}-benzooxazole hydrochloride] | 12300
6 | FC(F)(F)c1cccc(C2CCCN(CC(Cc3ncc(-c4ccccc4)[nH]3)C(F)(F)F)C2)c1 (stereo not drawn) [Example 5, 3-(3-Trifluoromethyl-phenyl)-1-[3,3,3-trifluoro-2-(5-phenyl-1H-imidazol-2-ylmethyl)-propyl]-piperidine hydrochloride] | 11200
7 | FC(F)(F)c1cccc(C2CCCN(CC(Cc3ncc(-c4cccc(Cl)c4)[nH]3)C(F)(F)F)C2)c1 (stereo not drawn) [Example 6, 1-{2-[5-(3-Chlorophenyl)-1H-imidazol-2-ylmethyl]-3,3,3-trifluoro-propyl}-3-(3-trifluoromethyl-phenyl)piperidine hydrochloride] | 2260
8 | Fc1ccc(-c2cnc(CC(CN3CCCC(c4cccc(C(F)(F)F)c4)C3)C(F)(F)F)[nH]2)cc1 (stereo not drawn) [Example 7, 1-{3,3,3-Trifluoro-2-[5-(4-fluoro-phenyl)-1H-imidazol-2-ylmethyl]-propyl}-3-(3-trifluoromethyl-phenyl)-piperidine hydrochloride] | 6050
9 | Fc1ccc(-c2nnc(CC(CN3CCCC(c4cccc(C(F)(F)F)c4)C3)C(F)(F)F)o2)cc1 (stereo not drawn) [Example 8, 1-{3,3,3-Trifluoro-2-[5-(4-fluorophenyl)-[1,3,4]oxadiazol-2-ylmethyl]-propyl}-3-(3-trifluoromethyl-phenyl)-piperidine hydrochloride] | 116
10 | FC(F)(F)c1cccc(C2CCCN(CC(Cc3nnc(-c4cccc(Cl)c4)o3)C(F)(F)F)C2)c1 (stereo not drawn) [Example 9, 1-{2-[5-(3-Chloro-phenyl)-[1,3,4]oxadiazol-2-ylmethyl]-3,3,3-trifluoro-propyl}-3-(3-trifluoromethyl-phenyl)-piperidine hydrochloride] | 9110
11 | Cc1ccc(-c2nnc(CC(CN3CCCC(c4cccc(C(F)(F)F)c4)C3)C(F)(F)F)o2)cn1 (stereo not drawn) [Example 10, 2-Methyl-5-(5-{3,3,3-trifluoro-2-[3-(3-trifluoromethyl-phenyl)-piperidin-1-ylmethyl]-propyl}-[1,3,4]oxadiazol-2-yl)-pyridine] | 2400
12 | FC(F)(F)c1cccc(C2CCCN(CC(Cc3nnc(-c4ccc(Cl)cn4)o3)C(F)(F)F)C2)c1 (stereo not drawn) [Example 11, 5-Chloro-2-(5-{3,3,3-trifluoro-2-[3-(3-trifluoromethyl-phenyl)-piperidin-1-ylmethyl]-propyl}-[1,3,4]oxadiazol-2-yl)-pyridine hydrochloride] | 30000
13 | Fc1ccc(-c2nnc(CC(CN3CCOC(c4cccc(C(F)(F)F)c4)C3)C(F)(F)F)o2)cc1 (stereo not drawn) [Example 12, 4-{3,3,3-Trifluoro-2-[5-(4-fluoro-phenyl)-[1,3,4]oxadiazol-2-ylmethyl]-propyl}-2-(3-trifluoromethyl-phenyl)-morpholine hydrochloride] | 112
14 | FC(F)(F)c1cccc(C2CCCN(CC(Cc3ncc(-c4ccc(Cl)cc4)o3)C(F)(F)F)C2)c1 (stereo not drawn) [Example 13, 1-{2-[5-(4-Chloro-phenyl)-oxazol-2-ylmethyl]-3,3,3-trifluoro-propyl}-3-(3-trifluoromethyl-phenyl)-piperidine hydrochloride] | 7270
15 | Fc1ccc(-c2nc(CC(CN3CCCC(c4cccc(C(F)(F)F)c4)C3)C(F)(F)F)no2)cc1 (stereo not drawn) [Example 15, 1-{3,3,3-Trifluoro-2-[5-(4-fluoro-phenyl)-[1,2,4]oxadiazol-3-ylmethyl]-propyl}-3-(3-trifluoromethyl-phenyl)-piperidine hydrochloride] | 318
16 | FC(F)(F)c1cccc(C2CN(CC(Cc3nnc(-c4ccc(Cl)cc4)o3)C(F)(F)F)CCO2)c1 (stereo not drawn) [Example 16, 4-{2-[5-(4-Chlorophenyl)-[1,3,4]oxadiazol-2-ylmethyl]-3,3,3-trifluoropropyl}-2-(3-trifluoromethyl-phenyl)-morpholine hydrochloride] | 228
17 | Fc1ccc(-c2nnc(CC(CN3CCOC(c4ccc(C(F)(F)F)cc4)C3)C(F)(F)F)o2)cc1 (stereo not drawn) [Example 17, 4-{3,3,3-Trifluoro-2-[5-(4-fluoro-phenyl)-[1,3,4]oxadiazol-2-ylmethyl]-propyl}-2-(4-trifluoromethyl-phenyl)-morpholine hydrochloride] | 62.1
18 | FC(F)(F)c1ccc(C2CN(CC(Cc3nnc(-c4ccc(Cl)cc4)o3)C(F)(F)F)CCO2)cc1 (stereo not drawn) [Example 18, 4-{2-[5-(4-Chloro-phenyl)-[1,3,4]oxadiazol-2-ylmethyl]-3,3,3-trifluoro-propyl}-2-(4-trifluoromethyl-phenyl)-morpholinehydrochloride] | 267
